# Data as given in PubChem BioAssay AID2060606 (Molecular Pharmacology Branch, DTP, NCI, 2025).
# Tested on: 922993-354-T-J3-PDC complex spheroids, viability, % test/control
# Assay: Anticancer human tumor 922993-354-T-J3-PDC patient-derived endometrial carcinoma cell line growth inhibition [CLK]
# Conditions: for IC50: curve of first compound; for viability, T/C: stronger effect = lower value
# Method in brief: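 Patient-derived tumor cells grown as complex spheroids with HUVEC endothelial cells and mesenchymal stem cells, treated with drug combinations. Concentrations descend in half-log steps from near clinical Cmax, or from 10 microM if Cmax unknown.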
# [1] = second compound 0.0316 µM, first compound 0.0316 µM
# [2] = second compound 0.0316 µM, first compound 0.1 µM
# [3] = second compound 0.0316 µM, first compound 0.316 µM
# [4] = second compound 0.0316 µM, first compound 1 µM
# [5] = second compound 0.0316 µM, first compound 3.16 µM
# [6] = second compound 0.0316 µM, first compound 10 µM
# [7] = second compound 0.1 µM, first compound 0.0316 µM
# [8] = second compound 0.1 µM, first compound 0.1 µM
# [9] = second compound 0.1 µM, first compound 0.316 µM
# [10] = second compound 0.1 µM, first compound 1 µM
# [11] = second compound 0.1 µM, first compound 3.16 µM
# [12] = second compound 0.1 µM, first compound 10 µM
# [13] = second compound 0.316 µM, first compound 0.0316 µM
# [14] = second compound 0.316 µM, first compound 0.1 µM
# [15] = second compound 0.316 µM, first compound 0.316 µM
# [16] = second compound 0.316 µM, first compound 1 µM
# [17] = second compound 0.316 µM, first compound 3.16 µM
# [18] = second compound 0.316 µM, first compound 10 µM
# [19] = second compound 1 µM, first compound 0.0316 µM
# [20] = second compound 1 µM, first compound 0.1 µM
# [21] = second compound 1 µM, first compound 0.316 µM
# [22] = second compound 1 µM, first compound 1 µM
# [23] = second compound 1 µM, first compound 3.16 µM
# [24] = second compound 1 µM, first compound 10 µM
# [25] = second compound 3.16 µM, first compound 0.0316 µM
# [26] = second compound 3.16 µM, first compound 0.1 µM
# [27] = second compound 3.16 µM, first compound 0.316 µM
# [28] = second compound 3.16 µM, first compound 1 µM
# [29] = second compound 3.16 µM, first compound 3.16 µM
# [30] = second compound 3.16 µM, first compound 10 µM
# [31] = second compound 10 µM, first compound 0.0316 µM
# [32] = second compound 10 µM, first compound 0.1 µM
# [33] = second compound 10 µM, first compound 0.316 µM
# [34] = second compound 10 µM, first compound 1 µM
# [35] = second compound 10 µM, first compound 3.16 µM
# [36] = second compound 10 µM, first compound 10 µM
# 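Further: spheroids exposed to the agents for 7 days before readout.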
smiles,measurement,setting,value
CC(C)CC(NC(=O)C(Cc1ccccc1)NC(=O)c1cnccn1)B(O)O (stereo unspecified) + CNC(=O)c1ccc(Nc2nc(OC3CCCC3)c3c(-c4ccc5nc(C)oc5c4)c[nH]c3n2)c(OC)c1,IC50,second compound 0.0316 µM,10.3 nM
same,IC50,second compound 0.1 µM,11.1 nM
same,IC50,second compound 0.316 µM,5.27 nM
same,IC50,second compound 1 µM,< 0.949 nM
same,IC50,second compound 3.16 µM,< 0.949 nM
same,IC50,second compound 10 µM,< 0.949 nM
same,"viability, T/C","second compound 0.0316 µM, first compound 0.000949 µM",106%
same,"viability, T/C","second compound 0.0316 µM, first compound 0.003 µM",91.4%
same,"viability, T/C","second compound 0.0316 µM, first compound 0.00949 µM",53%
same,"viability, T/C","second compound 0.0316 µM, first compound 0.03 µM",15%
same,"viability, T/C","second compound 0.0316 µM, first compound 0.0949 µM",1.67%
same,"viability, T/C","second compound 0.0316 µM, first compound 0.3 µM",2.25%
same,"viability, T/C","second compound 0.1 µM, first compound 0.000949 µM",79.8%
same,"viability, T/C","second compound 0.1 µM, first compound 0.003 µM",65.5%
same,"viability, T/C","second compound 0.1 µM, first compound 0.00949 µM",57.2%
same,"viability, T/C","second compound 0.1 µM, first compound 0.03 µM",10.3%
same,"viability, T/C","second compound 0.1 µM, first compound 0.0949 µM",2.17%
same,"viability, T/C","second compound 0.1 µM, first compound 0.3 µM",0.85%
same,"viability, T/C","second compound 0.316 µM, first compound 0.000949 µM",80.2%
same,"viability, T/C","second compound 0.316 µM, first compound 0.003 µM",64.4%
same,"viability, T/C","second compound 0.316 µM, first compound 0.00949 µM",35.2%
same,"viability, T/C","second compound 0.316 µM, first compound 0.03 µM",6.18%
same,"viability, T/C","second compound 0.316 µM, first compound 0.0949 µM",2.17%
same,"viability, T/C","second compound 0.316 µM, first compound 0.3 µM",0.48%
same,"viability, T/C","second compound 1 µM, first compound 0.000949 µM",36.8%
same,"viability, T/C","second compound 1 µM, first compound 0.003 µM",32.6%
same,"viability, T/C","second compound 1 µM, first compound 0.00949 µM",14%
same,"viability, T/C","second compound 1 µM, first compound 0.03 µM",3.9%
same,"viability, T/C","second compound 1 µM, first compound 0.0949 µM",0.77%
same,"viability, T/C","second compound 1 µM, first compound 0.3 µM",1.23%
same,"viability, T/C","second compound 3.16 µM, first compound 0.000949 µM",30.9%
same,"viability, T/C","second compound 3.16 µM, first compound 0.003 µM",19.4%
same,"viability, T/C","second compound 3.16 µM, first compound 0.00949 µM",2.49%
same,"viability, T/C","second compound 3.16 µM, first compound 0.03 µM",2.35%
same,"viability, T/C","second compound 3.16 µM, first compound 0.0949 µM",0.79%
same,"viability, T/C","second compound 3.16 µM, first compound 0.3 µM",0.78%
same,"viability, T/C","second compound 10 µM, first compound 0.000949 µM",25%
same,"viability, T/C","second compound 10 µM, first compound 0.003 µM",15%
same,"viability, T/C","second compound 10 µM, first compound 0.00949 µM",3.13%
same,"viability, T/C","second compound 10 µM, first compound 0.03 µM",3.29%
same,"viability, T/C","second compound 10 µM, first compound 0.0949 µM",0.81%
same,"viability, T/C","second compound 10 µM, first compound 0.3 µM",0.61%
CC1(C)CCC(CN2CCN(c3ccc(C(=O)NS(=O)(=O)c4ccc(NCC5CCOCC5)c([N+](=O)[O-])c4)c(Oc4cnc5[nH]ccc5c4)c3)CC2)=C(c2ccc(Cl)cc2)C1 + CNC(=O)c1ccc(Nc2nc(OC3CCCC3)c3c(-c4ccc5nc(C)oc5c4)c[nH]c3n2)c(OC)c1,IC50,second compound 0.0316 µM,> 10000 nM
same,IC50,second compound 0.1 µM,> 10000 nM
same,IC50,second compound 0.316 µM,4840 nM
same,IC50,second compound 1 µM,< 31.6 nM
same,IC50,second compound 3.16 µM,< 31.6 nM
same,IC50,second compound 10 µM,< 31.6 nM
same,"viability, T/C",[1],108%
same,"viability, T/C",[2],96%
same,"viability, T/C",[3],102%
same,"viability, T/C",[4],88%
same,"viability, T/C",[5],108%
same,"viability, T/C",[6],66.1%
same,"viability, T/C",[7],108%
same,"viability, T/C",[8],105%
same,"viability, T/C",[9],110%
same,"viability, T/C",[10],104%
same,"viability, T/C",[11],113%
same,"viability, T/C",[12],61.5%
same,"viability, T/C",[13],69.8%
same,"viability, T/C",[14],62.8%
same,"viability, T/C",[15],61.3%
same,"viability, T/C",[16],58.7%
same,"viability, T/C",[17],64.4%
same,"viability, T/C",[18],27.1%
same,"viability, T/C",[19],36.3%
same,"viability, T/C",[20],37.7%
same,"viability, T/C",[21],27.1%
same,"viability, T/C",[22],38.2%
same,"viability, T/C",[23],31.8%
same,"viability, T/C",[24],17.9%
same,"viability, T/C",[25],29.6%
same,"viability, T/C",[26],33.6%
same,"viability, T/C",[27],28.6%
same,"viability, T/C",[28],31.3%
same,"viability, T/C",[29],29%
same,"viability, T/C",[30],15.4%
same,"viability, T/C",[31],31.4%
same,"viability, T/C",[32],25.7%
same,"viability, T/C",[33],26%
same,"viability, T/C",[34],25%
same,"viability, T/C",[35],29.4%
same,"viability, T/C",[36],13.6%
CC1COCCN1c1cc(C2(S(C)(=N)=O)CC2)nc(-c2ccnc3[nH]ccc23)n1 (stereo unspecified) + CNC(=O)c1ccc(Nc2nc(OC3CCCC3)c3c(-c4ccc5nc(C)oc5c4)c[nH]c3n2)c(OC)c1,IC50,second compound 0.0316 µM,> 10000 nM
same,IC50,second compound 0.1 µM,> 10000 nM
same,IC50,second compound 0.316 µM,> 10000 nM
same,IC50,second compound 1 µM,< 31.6 nM
same,IC50,second compound 3.16 µM,< 31.6 nM
same,IC50,second compound 10 µM,< 31.6 nM
same,"viability, T/C",[1],88.2%
same,"viability, T/C",[2],108%
same,"viability, T/C",[3],98.8%
same,"viability, T/C",[4],115%
same,"viability, T/C",[5],106%
same,"viability, T/C",[6],104%
same,"viability, T/C",[7],111%
same,"viability, T/C",[8],119%
same,"viability, T/C",[9],115%
same,"viability, T/C",[10],116%
same,"viability, T/C",[11],101%
same,"viability, T/C",[12],80.5%
same,"viability, T/C",[13],67.4%
same,"viability, T/C",[14],56%
same,"viability, T/C",[15],55%
same,"viability, T/C",[16],66.9%
same,"viability, T/C",[17],75.9%
same,"viability, T/C",[18],40.5%
same,"viability, T/C",[19],35.2%
same,"viability, T/C",[20],33.1%
same,"viability, T/C",[21],34.1%
same,"viability, T/C",[22],34.7%
same,"viability, T/C",[23],27%
same,"viability, T/C",[24],14.7%
same,"viability, T/C",[25],34.1%
same,"viability, T/C",[26],32.8%
same,"viability, T/C",[27],31.1%
same,"viability, T/C",[28],32.3%
same,"viability, T/C",[29],21.1%
same,"viability, T/C",[30],9.92%
same,"viability, T/C",[31],32%
same,"viability, T/C",[32],27.5%
same,"viability, T/C",[33],28.2%
same,"viability, T/C",[34],27.5%
same,"viability, T/C",[35],20.6%
same,"viability, T/C",[36],9.29%
